Results as given in US4216324A, “1-Difluoromethyl-6,7-methylenedioxy-1,4-dihyd ro-4-oxo-3-quinolinecarboxylic acid” (E. I. Du Pont de Nemours and Company, priority 1978, dated 1980).
In brackets after ≈: the same amount, converted by molar mass. Like-named read-outs stand apart in the source and are kept apart here.

Legend:
Sal typhosa = assay: In vitro minimum inhibitory concentration (MIC), tube dilution test; type: cell-based; settings: read-out: Minimal Inhibitory Test Conens. (MIC)
Description: A. In vitro: mimimum inhibitory concentration (MIC)
The compound was tested in a standard bacteriological tube dilution test for MIC for a variety of bacteria. Stock cultures of the bacteria listed in Table 1 were grown in bacterial culture media at 37° C. overnight and diluted in culture tubes to a previously determined concentration proper for the test. The compound was added to result in final concentrations of 10, 2, 0.4 and 0.08 μg/ml. These were incubated for 18 hours at 37° C. and then observed to determine if growth of bacteria had occurred. The lowest concentration of the compound that inhibited bacterial growth in the MIC.
*brain-heart infusion broth, 20hour incubation at 37° C.

[1] = General pharmacology screen in mice; settings: mouse, in vivo, po; for TD50: doses given in mg./kg
Description: (§1) 17- to 24-hour fasted female white mice, 16-20 g. each, or rats, 70-90 g. each were dosed orally with test drug (or standard) at 0, 4, 12, 36, 108 or 324 mg./kg.
(§2) Ataxia--The mouse or rat was placed upright on the bench top facing away from the observer. Motor incoordination manifested by abnormal gait or lack of precision during purposive movements constituted ataxia.
(§3) Vertical Bar--The mouse or rat was swung by the tail with head pointing down to a 0.5" diameter (1" diameter for rats), 30.5 cm long vertical rod covered with adhesive tape. Inability to grip the rod with the front paws, sliding or failure to move after being prodded constituted vertical bar loss.
(§4) Body Temperature--The rectal temperatures of the mice and rats were taken using a KC-1 thermocouple probe.
(§5) Excitement and Irritability--Increased spontaneous motor activity, running and jumping prior to handling were recorded as excitement. Upon handling, jumping, jerking, biting and squeaking were recorded as irritability.
(§6) Anorexia--At the end of the 0.5 hour testing period, each mouse was transferred to an individual, clear, Lucite® compartment (13.3 cm×12.7 cm×12.7 cm) with a 0.64 cm×0.64 cm wire mesh floor. Inside each compartment there was a section of a black Lucite® bar [13 cm×1.2 cm×1.2 cm) with ten spot depressions (0.8 cm diameter) each containing 0.05 ml. of 50% sweetened condensed milk. 30 Minutes later the number of milk spots consumed was counted. 5 Mice per drug dose can drink a maximum of 50 spots (2.5 ml. of milk). 15 or fewer spots consumed by 5 mice constituted anorexia.

mice = assay: General pharmacology screen in mice; settings: summary in words of Tables 3 and 4 (mice and rats)
Description: as §1, §2, §3, §4, §5, §6

[2] = cited from earlier work; for undesirable side effects: Cox, Delaware Medical Journal, 1970
bacteria = settings: Ronald et al., New England Journal of Medicine, 1966; cited from earlier work
Escherichia coli = Escherichia coli (mouse infections); type: in vivo; settings: female white mice, oral, at infection and again 4 hours after, 72 hours, Reed-Muench, read-out: ED50 (dose effective to save 50% of the mice)
Description: 1. Escherichia coli (mouse infections)
(§7) Female white mice weighing approximately 20 grams were infected by injecting a sufficient number of E. coli cells intraperitoneally to cause 85-100% fatalities within 3 days after infection. Groups of 12 such infected mice were dosed orally by intubation with the compound suspended in water to equal 40, 20, 10 and 5 mg/kg at the time of infection and again 4 hours after infection time. […] The dose effective to save 50% of the mice (ED50) was calculated by the Reed-Muench method (Reed, L. J. Muench, H. A Single Method of Estimating 50% Endpoints, Am. J. Hygiene 27, p. 493-497 (1938)).

Staphylococcus aureus = Staphylococcus aureus (mouse infections); type: in vivo; settings: female white mice, oral, at infection and again 4 hours after, 72 hours, Reed-Muench, read-out: ED50 (dose effective to save 50% of the mice)
Description: as §7
2. Staphylococcus aureus (mouse infections)
The same methods as the previous test were used, except the compound concentrations were 400, 200, 100 and 50 mg/kg. The ED50 's appear in Table 2.

[3] = ED50 Anoroxia, 15 or fewer milk spots consumed by 5 mice
[4] = ED50 Hypertherm., rectal temperature
[5] = ED50 Hypotherm., rectal temperature
[6] = ED50 Vert. Bar, vertical bar loss

CCn1cc(C(=O)O)c(=O)c2cc3c(cc21)OCO3 [Oxolinic Acid, oxolinic acid]
MIC (Sal typhosa; Sal typhosa (02D), brain-heart infusion broth, 20hour incubation at 37° C.): 0.4 µg/mL (≈ 1.53 µM) | LD50 at 24 h [1]: > 450 mg/kg | TD50 [1, 3]: 21 mg/kg | TD50 ([1]; ED50 Ataxia): 3.2 mg/kg | TD50 ([1]; ED50 Excitation): 8 mg/kg | TD50 [1, 4]: > 450 mg/kg | TD50 [1, 5]: > 450 mg/kg | TD50 ([1]; ED50 Irritability): 36 mg/kg | TD50 [1, 6]: 4.5 mg/kg | untoward effects in the general pharmacology screen (mice): produced ataxia, anorexia, excitation, and irritability | undesirable side effects [2]: a high incidence of undesirable side effects | toxicity, use in therapy of urinary tract infections ([2]; Kershaw and Leigh, 1975): because of toxicity, "it should not be used as a first-line drug in the therapy of urinary tract infections."

CCn1cc(C(=O)O)c(=O)c2ccc(C)nc21 [Nalidixic Acid, nalidixic acid]
LD50 at 24 h [1]: > 450 mg/kg | TD50 [1, 3]: 180 mg/kg | TD50 ([1]; ED50 Ataxia): 150 mg/kg | TD50 ([1]; ED50 Excitation): > 450 mg/kg | TD50 [1, 4]: > 450 mg/kg | TD50 [1, 5]: 187 mg/kg | TD50 ([1]; ED50 Irritability): > 450 mg/kg | TD50 [1, 6]: 187 mg/kg | untoward effects in the general pharmacology screen (mice): produced some ataxia, and anorexia | bacterial resistance (bacteria): tendency to rapidly evoke bacterial resistance | undesirable side effects [2]: a relatively high incidence of side effects

O=C(O)c1cn(C(F)F)c2cc3c(cc2c1=O)OCO3 [DFMQ, 1-difluoromethyl-6,7-methylenedioxy-1,4-dihydro-4-oxo-3-quinolinecarboxylic acid]
MIC (Sal typhosa; 20 h): < 0.08 µg/mL | ED50 (Escherichia coli): 9.9 mg/kg | ED50 (Staphylococcus aureus): 149 mg/kg | LD50 at 24 h [1]: > 450 mg/kg | TD50 [1, 3]: > 450 mg/kg | TD50 ([1]; ED50 Ataxia): > 450 mg/kg | TD50 ([1]; ED50 Excitation): > 450 mg/kg | TD50 [1, 4]: > 450 mg/kg | TD50 [1, 5]: > 450 mg/kg | TD50 ([1]; ED50 Irritability): > 450 mg/kg | TD50 [1, 6]: > 450 mg/kg
